Results reported in US20240018120A1, “MAGL INHIBITORS” (H. LUNDBECK A/S, priority 2020, published 2024).

Experiments:
MAGL [1] = molecular target: T1, MAGL (Homo sapiens, UniProt Q99685); assay: In vitro competitive activity-based protein profiling, PC3 human cell membrane proteomes; assay type: biochemical; set-up: endogenous in cells; host or cells: PC3 human cells (membrane proteome); conditions: human PC3 membrane proteome; for inhibition at 1 µM: read-out: MAGL % inh. 1 μM (human PC3)
T1 sequence (Q99685 1-303): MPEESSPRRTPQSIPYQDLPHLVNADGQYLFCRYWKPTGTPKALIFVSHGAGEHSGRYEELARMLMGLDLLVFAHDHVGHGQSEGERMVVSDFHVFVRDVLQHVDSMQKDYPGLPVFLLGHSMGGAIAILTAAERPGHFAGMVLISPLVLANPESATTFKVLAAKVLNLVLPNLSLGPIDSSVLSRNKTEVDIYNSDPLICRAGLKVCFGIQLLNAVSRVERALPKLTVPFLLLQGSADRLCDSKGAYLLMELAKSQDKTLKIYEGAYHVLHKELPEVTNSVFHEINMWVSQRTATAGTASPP
In short: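 Competitive ABPP in PC3 membrane proteome (2.0 mg/mL protein): inhibitors preincubated 30 min at 37° C, then JW912-Bodipy probe added for 30 min at room temperature. MAGL band fluorescence after SDS-PAGE normalised to DMSO; IC50 from 4-parameter sigmoidal fit.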

MAGL [2] = molecular target: T1, MAGL; assay: In vitro competitive substrate hydrolysis enzyme activity assay (pNPA), HEK293 cell lysates; assay type: biochemical; set-up: expressed in transfected cells; host or cells: HEK293; conditions: HEK293 lysate
Method: HEK293 cell lysates expressing recombinant human MAGL enzyme and 4-nitrophenyl acetate (pNPA) substrate were diluted separately in 50 mM HEPES (pH 7.0) containing 200 mM KCl and 1 mM EDTA. Lysates (50 μL, ˜1.2 μg total protein) were preincubated with varying concentrations of inhibitors at 25° C. After 30 min, 2×pNPA substrate (50 μL, 2.5 mM) was added and the rate of substrate turnover was monitored by measuring the increase in absorbance at wavelength 405 nm for 20 minutes at 25° C. using a Biotek Neo2 plate reader. The mean velocity was converted to percent enzyme activity following background subtraction and normalization to DMSO controls. IC50 values were determined by fitting percent enzyme activities to a non-linear regression, 4-parameter, sigmoidal dose response function in Prism GraphPad.

Compound | inhibition at 1 µM (MAGL [1]) [%] | IC50 (MAGL [2]) [µM] | IC50 (MAGL [1]) [µM]
CN(C(=O)C1CC12CCN(C(=O)OC(C(F)(F)F)C(F)(F)F)CC2)c1cccnc1 (single isomer, unassigned) [Example 42, 1,1,1,3,3,3-hexafluoropropan-2-yl (R or S)-1-(methyl(pyridin-3-yl)carbamoyl)-6-azaspiro[2.5]octane-6-carboxylate] | 100 | 0.243 | 
CN(C(=O)C1CC12CCN(C(=O)OC(C(F)(F)F)C(F)(F)F)CC2)c1cccnc1 (single isomer, unassigned) [Example 43, 1,1,1,3,3,3-hexafluoropropan-2-yl (R or S)-1-(methyl(pyridin-3-yl)carbamoyl)-6-azaspiro[2.5]octane-6-carboxylate] |  | 0.244 | 0.04
CN(C(=O)C1CC12CCN(C(=O)OC(C(F)(F)F)C(F)(F)F)CC2)c1ccccn1 (single isomer, unassigned) [Example 45, 1,1,1,3,3,3-hexafluoropropan-2-yl (R or S)-1-(methyl(pyridin-2-yl)carbamoyl)-6-azaspiro[2.5]octane-6-carboxylate] | 100 | 0.06 | 0.014
O=C(Nc1ccccn1)C1CC12CCN(C(=O)OC(C(F)(F)F)C(F)(F)F)CC2 (single isomer, unassigned) [Example 48, 1,1,1,3,3,3-hexafluoropropan-2-yl (R or S)-1-(pyridin-2-ylcarbamoyl)-6-azaspiro[2.5]octane-6-carboxylate] | 100 | 0.139 | 
O=C(OC(C(F)(F)F)C(F)(F)F)N1CCC2(CC1)CC2C(=O)N1CCn2cc(C(F)(F)F)nc2C1 (single isomer, unassigned) [Example 51, 1,1,1,3,3,3-hexafluoropropan-2-yl (R or S)-1-(2-(trifluoromethyl)-5,6,7,8-tetrahydroimidazo[1,2-a]pyrazine-7-carbonyl)-6-azaspiro[2.5]octane-6-carboxylate] | 100 | 0.0232 | 0.0048
O=C(Nc1cnccn1)C1CC12CCN(C(=O)OC(C(F)(F)F)C(F)(F)F)CC2 (single isomer, unassigned) [Example 54, 1,1,1,3,3,3-hexafluoropropan-2-yl (R or S)-1-(pyrazin-2-ylcarbamoyl)-6-azaspiro[2.5]octane-6-carboxylate] | 100 | 0.111 | 
O=C(OC(C(F)(F)F)C(F)(F)F)N1CCC2(CC1)CC2C(=O)N1CCc2cnc(C(F)(F)F)nc2C1 (single isomer, unassigned) [Example 57, 1,1,1,3,3,3-hexafluoropropan-2-yl (R or S)-1-(2-(trifluoromethyl)-5,6,7,8-tetrahydropyrido[3,4-d]pyrimidine-7-carbonyl)-6-azaspiro[2.5]octane-6-carboxylate] | 100 | 0.00473 | 0.0017
O=C(OC(C(F)(F)F)C(F)(F)F)N1CCC2(CC1)CC2C(=O)N1CCc2cnc(C(F)(F)F)nc2C1 (single isomer, unassigned) [Example 58, 1,1,1,3,3,3-hexafluoropropan-2-yl (R or S)-1-(2-(trifluoromethyl)-5,6,7,8-tetrahydropyrido[3,4-d]pyrimidine-7-carbonyl)-6-azaspiro[2.5]octane-6-carboxylate] |  | 0.138 | 0.049
O=C(OC(C(F)(F)F)C(F)(F)F)N1CCC2(CC1)CC2C(=O)N1CCc2ncncc2C1 (single isomer, unassigned) [Example 60, 1,1,1,3,3,3-hexafluoropropan-2-yl (R or S)-1-(5,6,7,8-tetrahydropyrido[4,3-d]pyrimidine-6-carbonyl)-6-azaspiro[2.5]octane-6-carboxylate] |  | 0.0854 | 0.036

Further lines, results first:

inhibition at 1 µM (MAGL [1]) [%] | IC50 (MAGL [2]) [µM] | IC50 (MAGL [1]) [µM] | Compound
100 | 0.0169 | 0.007 | O=C(OC(C(F)(F)F)C(F)(F)F)N1CCC2(CC1)CC2C(=O)N1CCc2nc(C3CC3)ncc2C1 (single isomer, unassigned) [Example 63, 1,1,1,3,3,3-hexafluoropropan-2-yl (R or S)-1-(2-cyclopropyl-5,6,7,8-tetrahydropyrido[4,3-d]pyrimidine-6-carbonyl)-6-azaspiro[2.5]octane-6-carboxylate]
100 | 0.00102 | 0.0042 | O=C(Nc1cncc(Cl)c1)C1CC12CCN(C(=O)OC(C(F)(F)F)C(F)(F)F)CC2 (single isomer, unassigned) [Example 66, 1,1,1,3,3,3-hexafluoropropan-2-yl (R or S)-1-((5-chloropyridin-3-yl)carbamoyl)-6-azaspiro[2.5]octane-6-carboxylate]
100 | 0.00617 |  | O=C(Nc1cccc(C(F)(F)F)n1)C1CC12CCN(C(=O)OC(C(F)(F)F)C(F)(F)F)CC2 (single isomer, unassigned) [Example 72, 1,1,1,3,3,3-hexafluoropropan-2-yl (R or S)-1-((6-(trifluoromethyl)pyridin-2-yl)carbamoyl)-6-azaspiro[2.5]octane-6-carboxylate]
100 | 0.00911 |  | O=C(NCc1cccc(C(F)(F)F)n1)C1CC12CCN(C(=O)OC(C(F)(F)F)C(F)(F)F)CC2 (single isomer, unassigned) [Example 75, 1,1,1,3,3,3-hexafluoropropan-2-yl (R or S)-1-(((6-(trifluoromethyl)pyridin-2-yl)methyl)carbamoyl)-6-azaspiro[2.5]octane-6-carboxylate]
 | 0.00241 | 0.0035 | O=C(NCc1cccc(C(F)(F)F)n1)C1CC12CCN(C(=O)OC(C(F)(F)F)C(F)(F)F)CC2 (single isomer, unassigned) [Example 76, 1,1,1,3,3,3-hexafluoropropan-2-yl (R or S)-1-(((6-(trifluoromethyl)pyridin-2-yl)methyl)carbamoyl)-6-azaspiro[2.5]octane-6-carboxylate]
 | 0.00299 | 0.008 | O=C(Nc1ccc(C(F)(F)F)nc1)C1CC12CCN(C(=O)OC(C(F)(F)F)C(F)(F)F)CC2 (single isomer, unassigned) [Example 78, 1,1,1,3,3,3-hexafluoropropan-2-yl (R or S)-1-((6-(trifluoromethyl)pyridin-3-yl)carbamoyl)-6-azaspiro[2.5]octane-6-carboxylate]
100 | 0.000864 | 0.00087 | Cc1ccc(NC(=O)C2CC23CCN(C(=O)OC(C(F)(F)F)C(F)(F)F)CC3)cn1 (single isomer, unassigned) [Example 81, 1,1,1,3,3,3-hexafluoropropan-2-yl (R or S)-1-((6-methylpyridin-3-yl)carbamoyl)-6-azaspiro[2.5]octane-6-carboxylate]
100 | 0.0101 | 0.0089 | O=C(Nc1cccnc1C(F)(F)F)C1CC12CCN(C(=O)OC(C(F)(F)F)C(F)(F)F)CC2 (single isomer, unassigned) [Example 84, 1,1,1,3,3,3-hexafluoropropan-2-yl (R or S)-1-((2-(trifluoromethyl)pyridin-3-yl)carbamoyl)-6-azaspiro[2.5]octane-6-carboxylate]
 | 0.167 | 0.099 | O=C(Nc1cccnc1C(F)(F)F)C1CC12CCN(C(=O)OC(C(F)(F)F)C(F)(F)F)CC2 (single isomer, unassigned) [Example 85, 1,1,1,3,3,3-hexafluoropropan-2-yl (R or S)-1-((2-(trifluoromethyl)pyridin-3-yl)carbamoyl)-6-azaspiro[2.5]octane-6-carboxylate]
100 | 0.463 | 0.2 | O=C(NCc1cccnc1)C1CC12CCN(C(=O)OC(C(F)(F)F)C(F)(F)F)CC2 (single isomer, unassigned) [Example 87, 1,1,1,3,3,3-hexafluoropropan-2-yl (R or S)-1-((pyridin-3-ylmethyl)carbamoyl)-6-azaspiro[2.5]octane-6-carboxylate]
 | 0.0718 | 0.0325 | O=C(NCc1cccnc1)C1CC12CCN(C(=O)OC(C(F)(F)F)C(F)(F)F)CC2 (single isomer, unassigned) [Example 88, 1,1,1,3,3,3-hexafluoropropan-2-yl (R or S)-1-((pyridin-3-ylmethyl)carbamoyl)-6-azaspiro[2.5]octane-6-carboxylate]
100 | 0.00579 | 0.0047 | O=C(NC(=O)C1CC12CCN(C(=O)OC(C(F)(F)F)C(F)(F)F)CC2)C1CCCCC1 (single isomer, unassigned) [Example 90, 1,1,1,3,3,3-hexafluoropropan-2-yl (R or S)-1-((cyclohexanecarbonyl)carbamoyl)-6-azaspiro[2.5]octane-6-carboxylate]
